Numbers after ± are expanded uncertainties. Blank lines part the entries; values can stand above or below the compound they belong to.
Key:
[1] = refractive index (Na D-line) (dimensionless); xn = mol fraction of the nth substance listed; conditions: 298.15 K, 101 kPa, Liquid, Standard Abbe refractometry
[2] = xn = mol fraction of the nth substance listed; conditions: 298.15 K, 101 kPa, Liquid; for viscosity: Capillary tube (Ostwald / Ubbelohde) method; for mass density: Pycnometric method; for speed of sound: ultra sonice interferometer
[3] = refractive index (Na D-line) (dimensionless); conditions: 298.15 K; 101.33 kPa; Liquid; Standard Abbe refractometry
[4] = 298.15 K, 101 kPa, Liquid

- refractive index ([1]; x2 = 0.6052): 1.406 ± 0.001
- viscosity ([2]; x2 = 0.6052): 0.633 ± 0.008 mPa·s
- mass density ([2]; x2 = 0.6052): 1043.3 ± 0.6 kg/m3
- speed of sound ([2]; x2 = 0.6052): 1115 ± 1 m/s
Compound: CC(=O)OCCC(C)C [3-methylbutyl ethanoate] + ClCCl

Compound: ClCCl [dichloromethane] + CCCCOC(C)=O
- refractive index ([1]; x1 = 0.5777): 1.403 ± 0.001
- viscosity ([2]; x1 = 0.5777): 0.575 ± 0.008 mPa·s
- mass density ([2]; x1 = 0.5777): 1049.2 ± 0.6 kg/m3
- speed of sound ([2]; x1 = 0.5777): 1181 ± 1 m/s

- refractive index [3]: 1.398 ± 0.001
- viscosity ([4]; Capillary tube (Ostwald / Ubbelohde) method): 0.588 ± 0.008 mPa·s
- mass density ([4]; Pycnometric method): 1057 ± 0.6 kg/m3
- speed of sound ([4]; ultra sonice interferometer): 1339 ± 1 m/s
Compound: C1COCO1 [1,3-dioxolane]

Compound: ClCCl [dichloromethane] + CCCOC(C)=O
- refractive index ([1]; x1 = 0.546): 1.397 ± 0.001
- viscosity ([2]; x1 = 0.546): 0.518 ± 0.007 mPa·s
- mass density ([2]; x1 = 0.546): 1053.5 ± 0.6 kg/m3
- speed of sound ([2]; x1 = 0.546): 1181 ± 1 m/s

Compound: ClCCl [dichloromethane] + COC(C)=O
- refractive index ([1]; x1 = 0.4659): 1.38 ± 0.001
- viscosity ([2]; x1 = 0.4659): 0.425 ± 0.007 mPa·s
- mass density ([2]; x1 = 0.4659): 1078 ± 0.6 kg/m3
- speed of sound ([2]; x1 = 0.4659): 1056 ± 1 m/s

Compound: ClCCl [dichloromethane] + CCOC(C)=O
- refractive index ([1]; x1 = 0.5092): 1.388 ± 0.001
- viscosity ([2]; x1 = 0.5092): 0.456 ± 0.007 mPa·s
- mass density ([2]; x1 = 0.5092): 1059.2 ± 0.6 kg/m3
- speed of sound ([2]; x1 = 0.5092): 1059 ± 1 m/s
